Experimental data from publication PMC9019904, “AD Informer Set: Chemical tools to facilitate Alzheimer's disease drug discovery” (Alzheimer's & Dementia : Translational Research & Clinical …, 2022).
In brackets after ≈: the same amount, converted by molar mass. Each block holds one compound with its values, some of them ahead of it.

Experiments:
[1] = Kinetic solubility in aqueous buffer pH 7.4 by total chemiluminescent nitrogen determination (Analiza); details: aqueous buffer, pH 7.4, aqueous buffer, kinetic from dmso stock
[2] = test system: BV2 (mouse microglia) cell line; assay: pHrodo-myelin phagocytosis/cell viability high content imaging assay: phagocytosis signal; type: cell-based; details: BV2; compound 10 uM; pHrodo-myelin
Summary of the method: (§1)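 Read by high content imaging: the phagocytosis signal plus viability, measured simultaneously, with three extracted measurements. Imaging was done roughly 22 hours after pHrodo-myelin was added.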

[3] = test system: HMC3 (human microglia) cell line; assay: as above; type: cell-based; details: HMC3; compound 10 uM; pHrodo-myelin
Summary of the method: as §1

[4] = test system: BV2 (mouse microglia) cell line; assay: pHrodo-myelin phagocytosis/cell viability high content imaging assay: viability (cell count, nuclear area, nuclear intensity); details: BV2; compound 10 uM; 48 hours treatment
Summary of the method: (§2)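 BV2 mouse and HMC3 human microglia were treated with compounds at 10 μM for 48 h, with pHrodo-myelin present for the last 20 h. Viability was imaged as total cell count per well and mean nuclear intensity per cell. Values are means of duplicates, normalized to untreated wells as % control.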

[5] = test system: HMC3 (human microglia) cell line; assay: as above; details: HMC3; compound 10 uM; 48 hours treatment
Summary of the method: as §2

- solubility kinetic [1]: 0.9 µM (≈ 0.732 µg/mL)
Compound: CN(C)CC[C@H](CSc1ccccc1)Nc1ccc(S(=O)(=O)NC(=O)c2ccc(N3CCN(Cc4ccccc4-c4ccc(Cl)cc4)CC3)cc2)cc1[N+](=O)[O-] [ABT-737]

- solubility kinetic [1]: 176 µM (≈ 76.5 µg/mL)
Compound: O=C(NC1CC1)C(=O)C(Cc1ccccc1)NC(=O)[C@H]1CCC(=O)N1Cc1ccccc1 (stereo partly shown) [ABT-957 (Alicapistat)]

- solubility kinetic [1]: 191 µM (≈ 55.9 µg/mL)
Compound: Cc1cc(NC(=O)Nc2ccccc2)n(-c2ccccc2)n1 [CHEMBL86962 (VU0032230)]

Compound: CCCN(CC1CC1)c1nc(C)nc(Nc2c(Cl)cc(Cl)cc2Cl)c1Cl.Cl [UNC10303155A]
- 4. Phagocytosis (% control) [2]: 323.0 % control
- 4. Phagocytosis (% control) [3]: 86.3 % control
- 1. Cell count (% control) [4]: 40.3 % control
- 2. Nuclear Area (% Control) [4]: 117.9 % Control
- 3. Nuclear DNA Intensity (% control) [4]: 98.5 % control
- 1. Cell count (% control) [5]: 120.1 % control
- 2. Nuclear Area (% Control) [5]: 96.1 % Control
- 3. Nuclear DNA Intensity (% control) [5]: 105.3 % control

Compound: CN1C[C@H](Nc2cnn(C)c(=O)c2Br)C[C@H](c2ccccc2)C1 [UNC10303157A]
- 4. Phagocytosis (% control) [2]: 145.8 % control
- 4. Phagocytosis (% control) [3]: 103.4 % control
- 1. Cell count (% control) [4]: 85.0 % control
- 2. Nuclear Area (% Control) [4]: 105.0 % Control
- 3. Nuclear DNA Intensity (% control) [4]: 100.7 % control
- 1. Cell count (% control) [5]: 86.8 % control
- 2. Nuclear Area (% Control) [5]: 97.5 % Control
- 3. Nuclear DNA Intensity (% control) [5]: 100.9 % control

Compound: CCN1CCN(Cc2ccc(NC(=O)c3ccc(C)c(NC(=O)c4cncc(-c5cccs5)c4)c3)cc2C(F)(F)F)CC1 [UNC10303158A]
- 4. Phagocytosis (% control) [2]: 0.0043 % control
- 4. Phagocytosis (% control) [3]: 0.0256 % control
- 1. Cell count (% control) [4]: 10.2 % control
- 2. Nuclear Area (% Control) [4]: 124.4 % Control
- 3. Nuclear DNA Intensity (% control) [4]: 45.5 % control
- 1. Cell count (% control) [5]: 36.9 % control
- 2. Nuclear Area (% Control) [5]: 59.1 % Control
- 3. Nuclear DNA Intensity (% control) [5]: 194.1 % control

Compound: C=Cc1c(C)c2cc3nc(cc4[nH]c(cc5nc(cc1[nH]2)C(C)=C5CCC(=O)O)c(CCC(=O)OC)c4C)[C@@]1(C)C3=CC=C(C(=O)OC)[C@H]1C(=O)OC [UNC10303159A]
- 4. Phagocytosis (% control) [2]: 174.1 % control
- 4. Phagocytosis (% control) [3]: 5.8 % control
- 1. Cell count (% control) [4]: 114.7 % control
- 2. Nuclear Area (% Control) [4]: 121.1 % Control
- 3. Nuclear DNA Intensity (% control) [4]: 113.2 % control
- 1. Cell count (% control) [5]: 113.8 % control
- 2. Nuclear Area (% Control) [5]: 131.2 % Control
- 3. Nuclear DNA Intensity (% control) [5]: 126.0 % control

Compound: Cc1ccc(S(=O)(=O)O)cc1.Nc1n[nH]cc1-c1cc(Cl)ccc1Oc1cc(F)c(S(=O)(=O)Nc2cscn2)cc1Cl [UNC10303160A]
- 4. Phagocytosis (% control) [2]: 124.9 % control
- 4. Phagocytosis (% control) [3]: 74.7 % control
- 1. Cell count (% control) [4]: 121.5 % control
- 2. Nuclear Area (% Control) [4]: 103.1 % Control
- 3. Nuclear DNA Intensity (% control) [4]: 99.3 % control
- 1. Cell count (% control) [5]: 135.7 % control
- 2. Nuclear Area (% Control) [5]: 95.0 % Control
- 3. Nuclear DNA Intensity (% control) [5]: 100.7 % control

Compound: Cl.N=C(CCl)NCCC[C@H](NC(=O)c1ccccc1)C(N)=O [UNC10303161A]
- 4. Phagocytosis (% control) [2]: 134.6 % control
- 4. Phagocytosis (% control) [3]: 67.2 % control
- 1. Cell count (% control) [4]: 107.1 % control
- 2. Nuclear Area (% Control) [4]: 104.4 % Control
- 3. Nuclear DNA Intensity (% control) [4]: 99.5 % control
- 1. Cell count (% control) [5]: 164.2 % control
- 2. Nuclear Area (% Control) [5]: 99.9 % Control
- 3. Nuclear DNA Intensity (% control) [5]: 88.6 % control

Compound: COc1ccc(CCCN2CCC(COC(c3ccccc3)c3ccccc3)CC2)cc1 [UNC10303165A]
- 4. Phagocytosis (% control) [2]: 176.2 % control
- 4. Phagocytosis (% control) [3]: 43.5 % control
- 1. Cell count (% control) [4]: 87.4 % control
- 2. Nuclear Area (% Control) [4]: 108.5 % Control
- 3. Nuclear DNA Intensity (% control) [4]: 107.0 % control
- 1. Cell count (% control) [5]: 110.9 % control
- 2. Nuclear Area (% Control) [5]: 113.8 % Control
- 3. Nuclear DNA Intensity (% control) [5]: 93.8 % control

Compound: N[C@@H](CC(=O)Nc1ccc(Oc2cc(F)c(F)cc2Br)cc1)C(=O)O [UNC10303167A]
- 4. Phagocytosis (% control) [2]: 179.3 % control
- 4. Phagocytosis (% control) [3]: 85.8 % control
- 1. Cell count (% control) [4]: 64.5 % control
- 2. Nuclear Area (% Control) [4]: 104.8 % Control
- 3. Nuclear DNA Intensity (% control) [4]: 103.7 % control
- 1. Cell count (% control) [5]: 105.9 % control
- 2. Nuclear Area (% Control) [5]: 102.5 % Control
- 3. Nuclear DNA Intensity (% control) [5]: 96.0 % control

Compound: Cc1cc(C)nc(NS(=O)(=O)c2ccc(NC(=O)NC(=O)c3ccc(Cl)cc3Cl)cc2)n1 [UNC10303168A]
- 4. Phagocytosis (% control) [2]: 118.2 % control
- 4. Phagocytosis (% control) [3]: 88.1 % control
- 1. Cell count (% control) [4]: 124.0 % control
- 2. Nuclear Area (% Control) [4]: 99.5 % Control
- 3. Nuclear DNA Intensity (% control) [4]: 104.3 % control
- 1. Cell count (% control) [5]: 129.3 % control
- 2. Nuclear Area (% Control) [5]: 101.5 % Control
- 3. Nuclear DNA Intensity (% control) [5]: 94.7 % control

Compound: NC(=O)[C@@H]1CC[C@H](c2ccc(OCc3ccccc3F)cc2)N1 [UNC10303186A]
- 4. Phagocytosis (% control) [2]: 194.5 % control
- 4. Phagocytosis (% control) [3]: 105.3 % control
- 1. Cell count (% control) [4]: 138.2 % control
- 2. Nuclear Area (% Control) [4]: 103.3 % Control
- 3. Nuclear DNA Intensity (% control) [4]: 100.1 % control
- 1. Cell count (% control) [5]: 128.0 % control
- 2. Nuclear Area (% Control) [5]: 102.6 % Control
- 3. Nuclear DNA Intensity (% control) [5]: 95.0 % control

Compound: CC(=O)O[C@@H]1[C@@H](OC(C)=O)[C@@H](O)[C@H](Oc2c(-c3ccc(O)cc3)oc3cc(O)cc(O)c3c2=O)O[C@H]1C [UNC10303187A]
- 4. Phagocytosis (% control) [2]: 142.1 % control
- 4. Phagocytosis (% control) [3]: 67.9 % control
- 1. Cell count (% control) [4]: 146.1 % control
- 2. Nuclear Area (% Control) [4]: 103.4 % Control
- 3. Nuclear DNA Intensity (% control) [4]: 101.7 % control
- 1. Cell count (% control) [5]: 122.3 % control
- 2. Nuclear Area (% Control) [5]: 105.1 % Control
- 3. Nuclear DNA Intensity (% control) [5]: 90.5 % control

Compound: CC(=O)c1nc([C@@H](O)[C@H](O)[C@H](O)CO)c[nH]1 [UNC10303188A]
- 4. Phagocytosis (% control) [2]: 181.8 % control
- 4. Phagocytosis (% control) [3]: 91.3 % control
- 1. Cell count (% control) [4]: 136.1 % control
- 2. Nuclear Area (% Control) [4]: 102.5 % Control
- 3. Nuclear DNA Intensity (% control) [4]: 102.7 % control
- 1. Cell count (% control) [5]: 133.0 % control
- 2. Nuclear Area (% Control) [5]: 98.0 % Control
- 3. Nuclear DNA Intensity (% control) [5]: 87.6 % control

Compound: COCC(=O)O[C@]1(CCN(C)CCCc2nc3ccccc3[nH]2)CCc2cc(F)ccc2[C@@H]1C(C)C.Cl.Cl [UNC10303193A]
- 4. Phagocytosis (% control) [2]: 0.0 % control
- 4. Phagocytosis (% control) [3]: 9.6 % control
- 1. Cell count (% control) [4]: 0.0 % control
- 2. Nuclear Area (% Control) [4]: 78.1 % Control
- 3. Nuclear DNA Intensity (% control) [4]: 3.8 % control
- 1. Cell count (% control) [5]: 77.7 % control
- 2. Nuclear Area (% Control) [5]: 77.5 % Control
- 3. Nuclear DNA Intensity (% control) [5]: 143.7 % control

Compound: O=C1C=C(NCCc2cc(Br)c(O)c(Br)c2)C(=O)c2ncccc21 [UNC10303225A]
- 4. Phagocytosis (% control) [2]: 163.7 % control
- 4. Phagocytosis (% control) [3]: 54.3 % control
- 1. Cell count (% control) [4]: 8.3 % control
- 2. Nuclear Area (% Control) [4]: 122.7 % Control
- 3. Nuclear DNA Intensity (% control) [4]: 97.1 % control
- 1. Cell count (% control) [5]: 62.3 % control
- 2. Nuclear Area (% Control) [5]: 83.0 % Control
- 3. Nuclear DNA Intensity (% control) [5]: 132.4 % control
